Test results from patent publication US10421754B2, “Quinazoline derivative” (CSPC ZHONGQI PHARMACEUTICAL TECHNOLOGY (SHIJIAZHUANG) CO., …, priority 2014, dated 2019).

Experiments:
A375 = assay: In vitro cell experiment (MTT), A375; assay type: cell-based; details: A-375, 72 h, human melanoma cells (KDR expressing)
Experimental: (§1) Cells in logarithmic growth phase were seeded at a certain density in a 96-well plate (200 μL/well). The cells were allowed to grow for 24 h and subsequently treated with different concentrations of drugs (including a blank group and a control group) and incubated for 72 h at 37° C. Each concentration in a given experiment was tested in triplicate. After 72 h of exposure, 20 μL of the MTT labeling reagent was added to the medium (the final concentration of MTT was 0.5 mg/mL), and the cells were incubated for additional 4 h at 37° C. Following this process, 180 μL of the medium was removed and 130 μL of DMSO was added to each well, or the medium was completely removed and 150 μL of DMSO was added to each well. Then the plate was shaken and mixed in a micro-oscillator. Finally the optical density (OD) of each sample was measured in a micro-plate reader at 550 nm. Cell inhibition rate was calculated according to the following formula: […]
(§2) According to cell inhibition rates, IC50 was calculated by LOGIT method. The experiments were repeated twice and the data was expressed as means±SD.

BTK = BTK (Homo sapiens, UniProt Q06187); assay: In vitro enzyme experiment (ELISA), BTK; assay type: biochemical; details: Poly (Glu, Tyr)4:1 substrate, 5 μM ATP
Experimental: BTK: Bruton tyrosine kinase
(§3) ELISA: The enzyme plate was coated by enzyme reaction substrate (Poly (Glu, Tyr)4:1) at a density of 20 μg/ml. Then the enzyme, the sample and 5 μM ATP were mixed in the well to react. After the reaction, the substrate phosphorylation was detected by anti-phosphotyrosine monoclonal antibody (4G10). In the next step, the goat-anti-mouse IgG linking with horse radish peroxidase (HRP) and tetramethylbenzidine (TMB) were added sequentially in the well to evaluate the level of substrate phosphorylation by the degree of color depth. In the experiment, a blank group without tyrosine kinase and a control group with the corresponding concentration of DMSO were established. Finally, 50 μL/well of H2SO4 at a concentration of 0.18M was added in each well to stop the reaction. The optical density (OD) of each sample was measured in a micro-plate reader at 450 nm.
(§4) The relative inhibition rate of the compound against tyrosine kinase protein was determined.
(§5) According to the inhibition rates at different concentrations, IC50 was calculated by LOGIT method. The experiments were repeated three times, and the average of three IC50 values was the final index to evaluate the ability of inhibition.

HUVEC = assay: In vitro cell experiment (MTT), HUVEC; assay type: cell-based; details: 72 h, human umbilical vein endothelial cell (KDR overexpressing)
Experimental: as §1, §2

SK-OV-3 = assay: In vitro cell experiment (MTT), SK-OV-3; assay type: cell-based; details: 72 h, human ovarian carcinoma cells (EGFR2 overexpressing)
Experimental: as §1, §2

HCC827 = assay: In vitro cell experiment (MTT), HCC827; assay type: cell-based; details: 72 h, human non-small cell lung carcinoma (EGFR1 19 exon mutation)
Experimental: as §1, §2

AXL = AXL (Homo sapiens, UniProt P30530); assay: In vitro enzyme experiment (ELISA), AXL; assay type: biochemical; details: Poly (Glu, Tyr)4:1 substrate, 5 μM ATP
Experimental: as §3, with “AXL: Anaplastic lymphoma kinase Methods: ELISA:” for “ELISA:”, “nm. The relative inhibition rate of the compound against tyrosine kinase protein was determined. According to the inhibition rates at different concentrations, IC50 was calculated by LOGIT method. The experiments were repeated three times, and the average of three IC50 values was the final index to evaluate the ability of inhibition.” for “nm.”

Eca109 = assay: In vitro cell experiment (MTT), Eca109; assay type: cell-based; details: ECa-109, 72 h, human esophageal carcinoma cells
Experimental: as §1, §2

CFPAC-1 = assay: In vitro cell experiment (MTT), CFPAC-1; assay type: cell-based; details: 72 h, human pancreatic carcinoma cells
Experimental: as §1, §2

A498 = assay: In vitro cell experiment (MTT), A498; assay type: cell-based; details: 72 h, human renal carcinoma cells
Experimental: as §1, §2

[1] = Mouse maximum tolerated dose (MTD) experiment; details: in vivo, mice, oral, administered 7 days then observed 7 days
Experimental: In the mouse MTD experiment, the mice were administrated with the present compounds.
Healthy mice, having a small difference in body's weights, were chosen. The chosen mice were placed in different layers of cages according to their body's weights. In each layer, the mice were randomly divided into groups. In each group, there were three mice.
The administration dosages were 1000, 500, 250, 125, 62.5 and 31.25 mg/kg respectively and each two dosages differed by a factor of 2. For each of administration dosages, three mice were allotted. The mice were administrated with the present compounds for 7 days and then observed for the next 7 days without the present compounds.
The present compounds were orally administrated with the mice according to the administration dosage and the body weight.

FLT-1 = FLT-1 (Homo sapiens, UniProt P17948); assay: In vitro enzyme experiment (ELISA), FLT-1; assay type: biochemical; details: Poly (Glu, Tyr)4:1 substrate, 5 μM ATP
Experimental: FLT-1: Human vascular endothelial growth factor receptor 1
as §3, §4, §5

FGFR-1 = FGFR-1 (Homo sapiens, UniProt P11362); assay: In vitro enzyme experiment (ELISA), FGFR-1; assay type: biochemical; details: Poly (Glu, Tyr)4:1 substrate, 5 μM ATP
Experimental: FGFR-1: Fibroblast growth factor receptor 1
as §3, §4, §5

A431 = assay: In vitro cell experiment (MTT), A431; assay type: cell-based; details: A-431, 72 h, human epidermoid carcinoma (EGFR1 overexpressing)
Experimental: as §1, §2

KDR = KDR (Homo sapiens, UniProt P35968); assay: In vitro enzyme experiment (ELISA), KDR; assay type: biochemical; details: Poly (Glu, Tyr)4:1 substrate, 5 μM ATP
Experimental: KDR: Human vascular endothelial growth factor receptor 2
as §3, §4, §5

H292 = assay: In vitro cell experiment (MTT), H292; assay type: cell-based; details: NCI-H292, 72 h, human lung carcinoma cells (EGFR1 overexpressing)
Experimental: as §1, §2

HCT116 = assay: In vitro cell experiment (MTT), HCT116; assay type: cell-based; details: HCT-116, 72 h, human colon carcinoma cells
Experimental: as §1, §2

PC-9 = assay: In vitro cell experiment (MTT), PC-9; assay type: cell-based; details: 72 h, human non-small-cell lung carcinoma cells (EGFR1 19 exon mutation)
Experimental: as §1, §2

EGFR = EGFR (Homo sapiens, UniProt P00533); assay: In vitro enzyme experiment (ELISA), EGFR; assay type: biochemical; details: Poly (Glu, Tyr)4:1 substrate, 5 μM ATP
Experimental: EGFR: Human epidermal growth factor receptor 1
as §3, §4, §5

Bel-7402 = assay: In vitro cell experiment (MTT), Bel-7402; assay type: cell-based; details: 72 h, human hepatoma carcinoma cells
Experimental: as §1, §2

HT-29 = assay: In vitro cell experiment (MTT), HT-29; assay type: cell-based; details: 72 h, human colon carcinoma cells (expressing both c-KIT and PDGFR)
Experimental: as §1, §2

RET = RET (Homo sapiens, UniProt P07949); assay: In vitro enzyme experiment (ELISA), RET; assay type: biochemical; details: Poly (Glu, Tyr)4:1 substrate, 5 μM ATP
Experimental: RET: A receptor involved in thyroid cancer
as §3, §4, §5

PDGFRβ = PDGFRβ (Homo sapiens, UniProt P09619); assay: In vitro enzyme experiment (ELISA), PDGFRβ; assay type: biochemical; details: Poly (Glu, Tyr)4:1 substrate, 5 μM ATP
Experimental: PDGFRβ: Platelet-derived growth factor receptor β
as §3, §4, §5

TT = assay: In vitro cell experiment (MTT), TT; assay type: cell-based; details: 72 h, human thyroid carcinoma cells (RET C634W mutation)
Experimental: as §1, §2

A549 = assay: In vitro cell experiment (MTT), A549; assay type: cell-based; details: 72 h, human non-small-cell lung carcinoma cells (EGFR1 wildtype)
Experimental: as §1, §2

3T3swiss = assay: In vitro cell experiment (MTT), 3T3swiss; assay type: cell-based; details: Fibroblast, 72 h, mouse fibroblasts (PDGFR overexpressing)
Experimental: as §1, §2

SGC7901 = assay: In vitro cell experiment (MTT), SGC7901; assay type: cell-based; details: SGC-7901, 72 h, human gastric carcinoma cells
Experimental: as §1, §2

KDR, sequence (P35968 20-1356): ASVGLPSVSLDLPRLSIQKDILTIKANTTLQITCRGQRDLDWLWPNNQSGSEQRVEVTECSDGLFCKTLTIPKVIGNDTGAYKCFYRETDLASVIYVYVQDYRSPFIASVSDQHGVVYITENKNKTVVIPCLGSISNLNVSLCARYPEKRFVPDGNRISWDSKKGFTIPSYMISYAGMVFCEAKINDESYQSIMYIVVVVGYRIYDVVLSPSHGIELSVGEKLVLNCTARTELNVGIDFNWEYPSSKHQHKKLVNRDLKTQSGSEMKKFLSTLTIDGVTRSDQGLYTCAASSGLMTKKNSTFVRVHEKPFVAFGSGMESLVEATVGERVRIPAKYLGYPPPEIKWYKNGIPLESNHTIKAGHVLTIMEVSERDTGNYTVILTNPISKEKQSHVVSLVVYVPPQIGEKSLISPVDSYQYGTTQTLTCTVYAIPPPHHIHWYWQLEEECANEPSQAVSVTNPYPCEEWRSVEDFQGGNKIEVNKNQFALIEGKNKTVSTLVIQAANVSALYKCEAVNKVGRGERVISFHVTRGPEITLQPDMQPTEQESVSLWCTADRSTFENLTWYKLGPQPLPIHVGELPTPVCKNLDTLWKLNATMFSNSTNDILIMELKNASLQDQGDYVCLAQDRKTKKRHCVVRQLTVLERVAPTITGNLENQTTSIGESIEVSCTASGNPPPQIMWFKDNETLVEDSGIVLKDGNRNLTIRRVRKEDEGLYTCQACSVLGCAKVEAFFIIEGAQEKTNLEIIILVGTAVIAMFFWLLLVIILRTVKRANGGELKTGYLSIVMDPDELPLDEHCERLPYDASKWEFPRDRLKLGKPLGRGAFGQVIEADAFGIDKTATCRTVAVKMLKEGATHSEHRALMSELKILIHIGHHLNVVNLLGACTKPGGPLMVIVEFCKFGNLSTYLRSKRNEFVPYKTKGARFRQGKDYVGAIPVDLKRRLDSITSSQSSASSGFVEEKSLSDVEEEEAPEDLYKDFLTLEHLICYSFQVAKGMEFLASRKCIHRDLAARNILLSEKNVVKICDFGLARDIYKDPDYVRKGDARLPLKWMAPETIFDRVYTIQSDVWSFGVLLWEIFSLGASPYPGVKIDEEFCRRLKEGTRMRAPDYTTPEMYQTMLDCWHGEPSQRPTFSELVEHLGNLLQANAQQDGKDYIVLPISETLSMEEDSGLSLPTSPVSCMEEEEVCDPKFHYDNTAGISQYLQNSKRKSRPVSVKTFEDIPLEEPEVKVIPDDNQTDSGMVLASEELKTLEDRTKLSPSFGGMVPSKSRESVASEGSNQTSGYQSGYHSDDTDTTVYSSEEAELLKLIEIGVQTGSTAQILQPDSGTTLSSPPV
FGFR-1, sequence (P11362 22-822, species assumed): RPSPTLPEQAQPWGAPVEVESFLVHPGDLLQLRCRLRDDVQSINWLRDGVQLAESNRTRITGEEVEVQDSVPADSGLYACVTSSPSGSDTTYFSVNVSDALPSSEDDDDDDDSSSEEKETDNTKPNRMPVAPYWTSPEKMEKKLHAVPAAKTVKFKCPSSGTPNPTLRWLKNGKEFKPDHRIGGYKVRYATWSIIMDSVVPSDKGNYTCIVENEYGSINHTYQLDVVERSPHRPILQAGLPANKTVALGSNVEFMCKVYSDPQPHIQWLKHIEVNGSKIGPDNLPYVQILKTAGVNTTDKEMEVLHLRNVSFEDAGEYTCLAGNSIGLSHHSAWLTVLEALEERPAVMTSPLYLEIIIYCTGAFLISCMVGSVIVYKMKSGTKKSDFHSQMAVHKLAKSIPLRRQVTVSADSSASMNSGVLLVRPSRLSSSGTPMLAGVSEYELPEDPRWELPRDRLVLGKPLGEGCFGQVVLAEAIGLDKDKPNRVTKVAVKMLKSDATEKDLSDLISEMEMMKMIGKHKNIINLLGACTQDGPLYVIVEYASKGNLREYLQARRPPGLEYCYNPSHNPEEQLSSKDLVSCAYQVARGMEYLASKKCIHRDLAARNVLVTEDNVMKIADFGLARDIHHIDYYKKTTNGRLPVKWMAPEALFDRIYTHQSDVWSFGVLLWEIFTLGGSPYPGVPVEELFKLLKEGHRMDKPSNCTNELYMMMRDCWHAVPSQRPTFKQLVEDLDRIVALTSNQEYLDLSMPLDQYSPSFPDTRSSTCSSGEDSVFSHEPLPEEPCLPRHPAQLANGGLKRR
PDGFRβ, sequence (P09619 33-1106, species assumed): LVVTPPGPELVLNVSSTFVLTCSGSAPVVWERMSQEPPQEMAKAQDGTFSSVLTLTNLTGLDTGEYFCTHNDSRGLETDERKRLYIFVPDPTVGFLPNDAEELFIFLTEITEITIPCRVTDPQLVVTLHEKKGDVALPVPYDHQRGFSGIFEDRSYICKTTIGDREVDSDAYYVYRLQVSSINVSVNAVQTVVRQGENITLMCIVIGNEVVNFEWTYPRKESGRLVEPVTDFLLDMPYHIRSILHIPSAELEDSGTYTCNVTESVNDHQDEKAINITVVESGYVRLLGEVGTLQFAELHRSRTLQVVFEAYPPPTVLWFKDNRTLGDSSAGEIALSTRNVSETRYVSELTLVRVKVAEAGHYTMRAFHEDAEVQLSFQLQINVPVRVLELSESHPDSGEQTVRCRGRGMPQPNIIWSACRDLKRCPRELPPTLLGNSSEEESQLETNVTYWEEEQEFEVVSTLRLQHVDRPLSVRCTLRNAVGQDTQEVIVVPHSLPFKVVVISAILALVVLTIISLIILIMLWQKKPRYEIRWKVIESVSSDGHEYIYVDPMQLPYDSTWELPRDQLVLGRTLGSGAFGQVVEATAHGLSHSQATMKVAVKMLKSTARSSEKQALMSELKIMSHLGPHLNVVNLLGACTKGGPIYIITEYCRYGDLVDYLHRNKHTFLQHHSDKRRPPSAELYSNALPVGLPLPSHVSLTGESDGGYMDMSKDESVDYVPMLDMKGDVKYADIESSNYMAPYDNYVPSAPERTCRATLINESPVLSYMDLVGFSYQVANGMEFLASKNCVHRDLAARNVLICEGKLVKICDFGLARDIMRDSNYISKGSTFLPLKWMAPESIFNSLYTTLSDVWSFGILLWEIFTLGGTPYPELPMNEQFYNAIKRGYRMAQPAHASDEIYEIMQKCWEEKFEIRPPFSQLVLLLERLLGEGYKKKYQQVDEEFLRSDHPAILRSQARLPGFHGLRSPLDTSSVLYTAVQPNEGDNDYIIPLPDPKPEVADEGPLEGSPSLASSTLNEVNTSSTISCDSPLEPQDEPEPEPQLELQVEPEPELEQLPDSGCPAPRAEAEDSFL
BTK, sequence (Q06187 whole entry, species assumed): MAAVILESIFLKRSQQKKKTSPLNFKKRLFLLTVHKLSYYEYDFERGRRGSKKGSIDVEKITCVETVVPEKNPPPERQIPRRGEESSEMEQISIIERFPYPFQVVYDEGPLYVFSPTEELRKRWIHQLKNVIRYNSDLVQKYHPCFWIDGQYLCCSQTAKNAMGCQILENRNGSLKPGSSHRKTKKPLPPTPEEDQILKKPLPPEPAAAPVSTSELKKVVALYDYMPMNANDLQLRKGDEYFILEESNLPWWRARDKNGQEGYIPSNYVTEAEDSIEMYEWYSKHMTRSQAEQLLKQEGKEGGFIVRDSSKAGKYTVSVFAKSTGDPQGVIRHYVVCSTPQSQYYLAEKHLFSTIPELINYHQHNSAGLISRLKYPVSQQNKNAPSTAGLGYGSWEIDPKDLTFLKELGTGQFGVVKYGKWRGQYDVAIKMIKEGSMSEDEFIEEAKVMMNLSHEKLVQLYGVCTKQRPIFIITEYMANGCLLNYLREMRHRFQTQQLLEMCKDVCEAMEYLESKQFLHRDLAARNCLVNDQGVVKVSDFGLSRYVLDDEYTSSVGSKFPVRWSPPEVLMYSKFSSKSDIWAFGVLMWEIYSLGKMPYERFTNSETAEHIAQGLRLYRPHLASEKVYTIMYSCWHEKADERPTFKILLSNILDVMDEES
EGFR, sequence (P00533 25-1210): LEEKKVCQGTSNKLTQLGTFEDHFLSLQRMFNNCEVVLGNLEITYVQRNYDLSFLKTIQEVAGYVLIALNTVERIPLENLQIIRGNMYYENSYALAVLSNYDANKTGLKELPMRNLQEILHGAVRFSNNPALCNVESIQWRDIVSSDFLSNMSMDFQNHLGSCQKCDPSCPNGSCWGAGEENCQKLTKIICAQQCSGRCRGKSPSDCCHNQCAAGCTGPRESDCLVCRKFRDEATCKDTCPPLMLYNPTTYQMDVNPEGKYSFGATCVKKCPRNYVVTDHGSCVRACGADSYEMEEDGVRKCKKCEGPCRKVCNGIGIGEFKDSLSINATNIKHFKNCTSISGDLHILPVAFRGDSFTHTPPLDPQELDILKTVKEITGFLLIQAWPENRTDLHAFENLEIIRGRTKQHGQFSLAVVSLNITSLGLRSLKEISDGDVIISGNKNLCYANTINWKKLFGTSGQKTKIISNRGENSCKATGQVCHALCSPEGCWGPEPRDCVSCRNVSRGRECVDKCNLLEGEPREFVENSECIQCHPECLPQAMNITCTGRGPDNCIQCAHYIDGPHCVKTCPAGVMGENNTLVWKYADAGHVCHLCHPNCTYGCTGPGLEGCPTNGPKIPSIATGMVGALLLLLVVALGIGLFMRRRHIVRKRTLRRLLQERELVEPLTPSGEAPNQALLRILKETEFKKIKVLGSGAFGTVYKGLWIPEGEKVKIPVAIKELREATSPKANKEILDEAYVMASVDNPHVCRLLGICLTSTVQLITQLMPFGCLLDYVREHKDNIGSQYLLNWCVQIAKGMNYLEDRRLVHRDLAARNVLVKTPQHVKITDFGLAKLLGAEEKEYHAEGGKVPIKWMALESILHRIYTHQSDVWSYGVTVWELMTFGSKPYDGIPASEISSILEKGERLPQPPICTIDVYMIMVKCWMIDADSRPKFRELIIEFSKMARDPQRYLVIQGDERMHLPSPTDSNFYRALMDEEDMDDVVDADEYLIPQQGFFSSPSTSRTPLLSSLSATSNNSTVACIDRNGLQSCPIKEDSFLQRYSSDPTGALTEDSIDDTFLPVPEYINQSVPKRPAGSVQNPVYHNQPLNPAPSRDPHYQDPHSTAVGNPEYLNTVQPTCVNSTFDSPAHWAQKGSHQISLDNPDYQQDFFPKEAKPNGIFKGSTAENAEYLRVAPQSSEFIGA

Row | Compound | IC50 (A375) | IC50 (BTK) | IC50 (HUVEC) | IC50 (SK-OV-3) | IC50 (HCC827) | IC50 (AXL) | IC50 (Eca109) | IC50 (CFPAC-1) | IC50 (A498) | IC50 (FLT-1) | IC50 (A431) | IC50 (H292) | IC50 (HCT116) | IC50 (PC-9) | IC50 (Bel-7402) | IC50 (HT-29) | IC50 (TT) | IC50 (A549) | IC50 (3T3swiss) | IC50 (SGC7901) | further results
1 | COc1cc2c(Nc3ccc(F)c(Cl)c3)ncnc2cc1OCCCN1CCCC1 [Compound 39, 4-(3-chloro-4-fluoroanilino)-6-methoxy-7-(3-(pyrrolidin-1-yl)propoxy)quinazoline] | 197 nM | 297 nM | 18.8 nM | 1320 nM | 0.2 nM | 2050 nM | 5.75 µM | 5.25 µM | 2310 nM | 34.6 nM | 2260 nM | 45.7 nM | 510 nM | 6.6 nM | 5.66 µM | 2.87 µM | 186 nM | 2.66 µM | 1750 nM | 4.52 µM | MTD [1]: 62.5 to 125 mg/kg; IC50 (FGFR-1): 19.6 nM; IC50 (KDR): 18.9 nM; IC50 (EGFR): 121 nM; IC50 (RET): 10.2 nM; IC50 (PDGFRβ): 258 nM
2 | COc1cc2c(Nc3ccc(Br)cc3F)ncnc2cc1OCCCN1CCCCC1 [Compound 45, 4-(2-fluoro-4-bromoanilino)-6-methoxy-7-(3-(piperidin-1-yl)-propoxy)quinazoline, reference compound] | 290 nM | 414 nM | 187 nM | 4990 nM | 9.7 nM | 2990 nM | 7.02 µM | 6.72 µM | 3150 nM | 50.1 nM | 4150 nM | 105 nM | 1060 nM | 18.7 nM | 6.26 µM | 3.41 µM | 314 nM | 5.02 µM | 3790 nM | 6.26 µM | IC50 (FGFR-1): 41.6 nM; IC50 (KDR): 38.6 nM; IC50 (EGFR): 159 nM; IC50 (RET): 27.5 nM; IC50 (PDGFRβ): 328 nM
3 | COc1cc2c(Nc3ccc(Br)cc3F)ncnc2cc1OCCN1CCCC1 [Compound 2, 4-(4-bromo-2-fluoroanilino)-6-methoxy-7-((2-pyrrolidine-1-yl)ethoxy)quinazoline] | 185 nM |  | 40.4 nM |  | 5.6 nM |  | 5.8 µM |  |  |  |  | 46.3 nM | 1080 nM |  |  |  |  |  |  |  | 
4 | COc1cc2c(Nc3ccc(Br)cc3F)ncnc2cc1OCCCCN(C)C [Compound 28, 4-(4-bromo-2-fluoroanilino)-6-methoxy-7-(4-(dimethylamino)-butoxy)quinazoline] | 108 nM | 278 nM | 20.1 nM | 1830 nM | 0.1 nM | 1470 nM | 4.88 µM | 4.47 µM | 2270 nM | 27.4 nM | 1360 nM | 66.6 nM | 704 nM | 9.3 nM | 4.9 µM | 1.47 µM | 118 nM | 1.92 µM | 1610 nM | 3.96 µM | MTD [1]: 250 to 500 mg/kg; IC50 (FGFR-1): 17.8 nM; IC50 (KDR): 18.4 nM; IC50 (EGFR): 90.4 nM; IC50 (RET): 13.5 nM; IC50 (PDGFRβ): 156 nM
5 | COc1cc2c(Nc3ccc(Br)cc3F)ncnc2cc1OCCCN1CCCC1 [Compound 19, 4-(4-bromo-2-fluoroanilino)-6-methoxy-7-(3-(pyrrolidine-1-yl)propoxy)quinazoline] | 112 nM | 220 nM | 21.2 nM | 1960 nM | 0.1 nM | 1550 nM | 4.65 µM | 4.08 µM | 2060 nM | 25.6 nM | 1060 nM | 38.2 nM | 561 nM | 6.3 nM | 3.59 µM | 1.66 µM | 110 nM | 1.43 µM | 1090 nM | 2.76 µM | MTD [1]: 250 to 500 mg/kg; IC50 (FGFR-1): 15.7 nM; IC50 (KDR): 10.6 nM; IC50 (EGFR): 66.3 nM; IC50 (RET): 9.1 nM; IC50 (PDGFRβ): 113 nM
6 | COc1cc2c(Nc3ccc(Cl)cc3F)ncnc2cc1OCCCN1CCCC1 [Compound 44, 4-(2-fluoro-4-chloroanilino)-6-methoxy-7-(3-(pyrrolidin-1-yl)-propoxy)quinazoline, reference compound] | 315 nM | 424 nM | 198 nM | 4030 nM |  | 2990 nM | 6.98 µM | 6.72 µM | 3050 nM | 51.2 nM | 3570 nM | 124 nM | 988 nM | 16.8 nM | 9.68 µM | 3.46 µM | 257 nM | 4.9 µM | 2900 nM | 5.25 µM | IC50 (FGFR-1): 39.8 nM; IC50 (KDR): 40.5 nM; IC50 (RET): 23.4 nM; IC50 (PDGFRβ): 306 nM
7 | COc1cc2c(Nc3ccc(Br)cc3F)ncnc2cc1OCC1CCN(C)CC1 [Vandetanib, reference compound] |  |  |  | 3510 nM | 19.3 nM |  | 6.86 µM | 6.26 µM | 2960 nM |  | 3230 nM | 167 nM | 1210 nM | 14.9 nM | 6.85 µM | 3.23 µM | 192 nM | 4.45 µM | 2530 nM | 6.85 µM | 
